Data: ChEMBL document CHEMBL3132814, “Synthesis and biological evaluation of tetrahydropyridinepyrazoles (PFPs) as inhibitors of STAT3 phosphorylation” (2014)
Calls of active or inactive are those of the source. No cut-off for these calls is given here.

Columns and labels:
[1] = target: Signal transducer and activator of transcription 3 (Homo sapiens) (UniProt P40763); assay: Inhibition of STAT3-DNA binding in human HepG2 cells at 10 uM after 6 hrs by ELISA based DNA binding assay; format: cell-based
Sequence of Signal transducer and activator of transcription 3 (Homo sapiens) (P40763 whole entry): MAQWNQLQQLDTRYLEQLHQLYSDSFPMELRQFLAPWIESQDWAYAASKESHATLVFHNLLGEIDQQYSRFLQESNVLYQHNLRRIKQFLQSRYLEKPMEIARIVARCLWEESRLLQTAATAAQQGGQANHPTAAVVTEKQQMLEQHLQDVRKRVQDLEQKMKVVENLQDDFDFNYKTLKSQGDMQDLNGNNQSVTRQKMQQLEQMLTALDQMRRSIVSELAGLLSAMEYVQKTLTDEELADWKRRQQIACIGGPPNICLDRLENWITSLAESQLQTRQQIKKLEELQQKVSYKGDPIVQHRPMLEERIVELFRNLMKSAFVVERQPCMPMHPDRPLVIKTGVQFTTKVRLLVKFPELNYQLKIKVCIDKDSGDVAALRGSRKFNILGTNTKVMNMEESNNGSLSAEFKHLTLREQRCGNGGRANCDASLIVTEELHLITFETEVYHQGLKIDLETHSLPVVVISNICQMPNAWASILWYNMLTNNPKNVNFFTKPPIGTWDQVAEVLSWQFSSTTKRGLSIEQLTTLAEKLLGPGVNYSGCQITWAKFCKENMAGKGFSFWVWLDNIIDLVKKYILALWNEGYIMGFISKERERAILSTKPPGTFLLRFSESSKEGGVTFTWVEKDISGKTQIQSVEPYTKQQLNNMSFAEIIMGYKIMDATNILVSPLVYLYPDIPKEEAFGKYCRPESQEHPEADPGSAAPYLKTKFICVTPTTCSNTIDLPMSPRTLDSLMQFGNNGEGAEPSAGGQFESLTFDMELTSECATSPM

Hep 3B2 [2] = assay: Antiproliferative activity against human Hep3B cells assessed as inhibition of cell proliferation at 10 to 100 uM by MTT dye uptake assay; format: functional, cell-based; settings: TDE = time-dependent effect
PLC-PRF-5 [3] = assay: Antiproliferative activity against human PLC/PRF/5 cells assessed as inhibition of cell proliferation at 10 to 100 uM by MTT dye uptake assay; format: functional, cell-based; settings: TDE = time-dependent effect
Huh-7 [4] = assay: Antiproliferative activity against human HuH7 cells assessed as inhibition of cell proliferation at 10 to 100 uM by MTT dye uptake assay; format: functional, cell-based; settings: TDE = time-dependent effect
HepG2 [5] = assay: Antiproliferative activity against human HepG2 cells assessed as inhibition of cell proliferation at 10 to 100 uM by MTT dye uptake assay; format: functional, cell-based; settings: TDE = time-dependent effect
Hep 3B2 [6] = assay: Antiproliferative activity against human Hep3B cells assessed as inhibition of cell proliferation after 24 to 72 hrs by MTT dye uptake assay; format: functional, cell-based
PLC-PRF-5 [7] = assay: Antiproliferative activity against human PLC/PRF/5 cells assessed as inhibition of cell proliferation after 24 to 72 hrs by MTT dye uptake assay; format: functional, cell-based
Huh-7 [8] = assay: Antiproliferative activity against human HuH7 cells assessed as inhibition of cell proliferation after 24 to 72 hrs by MTT dye uptake assay; format: functional, cell-based
HepG2 [9] = assay: Antiproliferative activity against human HepG2 cells assessed as inhibition of cell proliferation after 24 to 72 hrs by MTT dye uptake assay; format: functional, cell-based
HepG2 [10] = assay: Antiproliferative activity against human HepG2 cells assessed as inhibition of cell proliferation at 100 uM after 2 hrs by MTT assay; format: functional; settings: for inhibition at 100 µM: HepG2, 2 h
MCF7 = assay: Antiproliferative activity against human MCF7 cells assessed as inhibition of cell proliferation at 100 uM after 2 hrs by MTT assay; format: functional; settings: MCF7, 2 h
HCCLM3 [11] = assay: Inhibition of human HCCLM3 cells migration at 10 uM for 6 hrs by wound-healing assay; format: functional, cell-based
HCCLM3 [12] = assay: Inhibition of human HCCLM3 cells migration at 10 uM for 6 hrs by matrigel invasion assay; format: functional, cell-based
HCCLM3 [13] = assay: Inhibition of CXCL12-induced human HCCLM3 cells migration pretreated at 10 uM for 6 hrs by wound-healing assay; format: functional, cell-based
HCCLM3 [14] = assay: Inhibition of CXCL12-induced human HCCLM3 cells migration pretreated at 10 uM for 6 hrs by matrigel invasion assay; format: functional, cell-based
PC-3 = assay: Antiproliferative activity against human PC3 cells assessed as inhibition of cell proliferation at 10 to 100 uM after 24 to 72 hrs by MTT assay; format: functional, cell-based
[15] = target: Tyrosine-protein kinase JAK2 (Homo sapiens) (UniProt O60674); assay: Inhibition of JAk2 activation in human HepG2 cells assessed as inhibition of phosphorylation at 10 uM by Western blot analysis; format: cell-based; settings: TDE = time-dependent effect
Sequence of Tyrosine-protein kinase JAK2 (Homo sapiens) (O60674 whole entry): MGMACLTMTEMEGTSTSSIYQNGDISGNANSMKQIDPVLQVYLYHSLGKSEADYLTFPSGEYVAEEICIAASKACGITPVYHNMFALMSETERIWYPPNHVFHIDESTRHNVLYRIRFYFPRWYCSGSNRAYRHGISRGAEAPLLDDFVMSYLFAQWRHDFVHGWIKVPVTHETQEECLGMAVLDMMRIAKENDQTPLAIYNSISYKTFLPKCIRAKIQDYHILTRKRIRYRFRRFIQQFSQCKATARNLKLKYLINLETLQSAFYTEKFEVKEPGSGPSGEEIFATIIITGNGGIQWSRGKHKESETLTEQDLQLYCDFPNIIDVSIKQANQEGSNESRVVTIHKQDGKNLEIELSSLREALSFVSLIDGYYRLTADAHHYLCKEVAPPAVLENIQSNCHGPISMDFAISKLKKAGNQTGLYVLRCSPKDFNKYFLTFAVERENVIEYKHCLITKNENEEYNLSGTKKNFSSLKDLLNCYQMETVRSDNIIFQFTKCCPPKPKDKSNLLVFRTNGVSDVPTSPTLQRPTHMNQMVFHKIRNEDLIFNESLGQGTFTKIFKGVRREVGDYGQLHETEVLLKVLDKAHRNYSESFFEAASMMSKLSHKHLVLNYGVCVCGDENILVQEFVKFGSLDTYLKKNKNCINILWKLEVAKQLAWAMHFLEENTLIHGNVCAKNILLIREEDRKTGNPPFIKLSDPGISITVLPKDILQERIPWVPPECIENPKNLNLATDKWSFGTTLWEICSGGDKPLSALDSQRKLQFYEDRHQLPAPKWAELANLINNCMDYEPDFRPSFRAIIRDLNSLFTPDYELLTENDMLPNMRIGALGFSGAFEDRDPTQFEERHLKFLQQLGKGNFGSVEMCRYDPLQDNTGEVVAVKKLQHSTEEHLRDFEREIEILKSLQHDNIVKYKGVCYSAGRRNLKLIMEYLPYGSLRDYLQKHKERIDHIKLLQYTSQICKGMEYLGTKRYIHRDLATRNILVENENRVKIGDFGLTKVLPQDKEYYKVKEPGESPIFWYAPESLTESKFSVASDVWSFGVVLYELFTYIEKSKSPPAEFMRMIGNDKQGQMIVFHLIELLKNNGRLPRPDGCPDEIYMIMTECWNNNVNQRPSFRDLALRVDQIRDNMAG

[16] = target: Proto-oncogene tyrosine-protein kinase Src (Homo sapiens) (UniProt P12931); assay: Inhibition of Src kinase activation in human HepG2 cells assessed as inhibition of phosphorylation at 10 uM by Western blot analysis; format: cell-based; settings: TDE = time-dependent effect
Sequence of Proto-oncogene tyrosine-protein kinase Src (Homo sapiens) (P12931 2-536 limits assumed): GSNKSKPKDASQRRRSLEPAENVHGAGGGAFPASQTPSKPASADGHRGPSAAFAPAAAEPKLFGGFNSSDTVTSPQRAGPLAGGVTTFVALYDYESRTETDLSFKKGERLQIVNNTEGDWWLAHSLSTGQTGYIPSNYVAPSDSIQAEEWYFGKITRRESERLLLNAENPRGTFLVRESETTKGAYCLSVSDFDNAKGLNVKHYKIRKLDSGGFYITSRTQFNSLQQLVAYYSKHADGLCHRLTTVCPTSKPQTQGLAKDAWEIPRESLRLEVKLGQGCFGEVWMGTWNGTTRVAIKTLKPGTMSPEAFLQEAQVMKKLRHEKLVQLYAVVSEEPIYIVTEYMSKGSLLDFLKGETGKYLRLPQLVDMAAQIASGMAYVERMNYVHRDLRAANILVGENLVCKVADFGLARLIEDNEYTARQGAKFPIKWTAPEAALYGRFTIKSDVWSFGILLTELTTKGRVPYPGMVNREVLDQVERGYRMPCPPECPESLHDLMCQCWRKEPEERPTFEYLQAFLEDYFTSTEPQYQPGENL

[17] = target: Signal transducer and activator of transcription 3 (Homo sapiens) (UniProt P40763); assay: Inhibition of STAT3 activation in human HepG2 cells assessed as maximal inhibition of phosphorylation at tyrosine 705 at 10 uM at 4 to 6 hrs by Western blot analysis; format: cell-based
[18] = target: Signal transducer and activator of transcription 3 (Homo sapiens) (UniProt P40763); assay: Inhibition of STAT3 activation in human HepG2 cells assessed as inhibition of phosphorylation at tyrosine 705 at 10 uM by Western blot analysis; format: cell-based; settings: TDE = time-dependent effect
[19] = target: Signal transducer and activator of transcription 3 (Homo sapiens) (UniProt P40763); assay: Inhibition of STAT3-DNA binding in human HepG2 cells after 6 hrs by ELISA based DNA binding assay; format: cell-based

**Q.** Which results are given for C=CCN1Cc2c(nn(-c3ccc(Cl)cc3Cl)c2NC(=S)Nc2ccc(C(F)(F)F)cc2)C(F)(F)C1c1ccc(OC)cc1 (stereo not given)?
**A.** inhibition [1]: Active; inhibition (Hep 3B2 [2]): tde; inhibition (PLC-PRF-5 [3]): tde; inhibition (Huh-7 [4]): tde; inhibition (HepG2 [5]): tde; inhibition (Hep 3B2 [6]): Dose-dependent effect; inhibition (PLC-PRF-5 [7]): Dose-dependent effect; inhibition (Huh-7 [8]): Dose-dependent effect; inhibition (HepG2 [9]): Dose-dependent effect; inhibition at 100 µM (HepG2 [10]): 85.1%; inhibition at 100 µM (MCF7): 84.1%

**Q.** How did the inhibition (HepG2 [10]) turn out when C=CCN1Cc2c(nn(-c3ccc(Cl)cc3Cl)c2NS(=O)(=O)c2ccccc2)C(F)(F)C1c1ccc(OC)cc1 (stereo not given) was run?
**A.** Its inhibition is “inactive”.

**Q.** And the inhibition at 100 µM (MCF7)?
**A.** The inhibition at 100 µM was 85.3%.

**Q.** Which results are given for C=CCN1Cc2c(nn(-c3ccc(Cl)cc3Cl)c2NS(=O)(=O)c2ccc(F)cc2)C(F)(F)C1c1ccc(OC)cc1 (stereo not given)?
**A.** inhibition (HepG2 [10]): inactive; inhibition at 100 µM (MCF7): 78.8%

**Q.** What does the source list for C=CCN1Cc2c(nn(-c3ccc(Cl)cc3Cl)c2NC(=O)Nc2ccccc2)C(F)(F)C1c1ccc(OC)cc1 (stereo not given)?
**A.** inhibition (HCCLM3 [11]): Active; inhibition (HCCLM3 [12]): Active; inhibition (HCCLM3 [13]): Active; inhibition (HCCLM3 [14]): Active; inhibition (PC-3): inactive; inhibition [15]: tde; inhibition [16]: tde; inhibition [17]: Active; inhibition [18]: tde; inhibition [19]: Dose-dependent effect; inhibition (Hep 3B2 [2]): tde; inhibition (PLC-PRF-5 [3]): tde; inhibition (Huh-7 [4]): tde; inhibition (HepG2 [5]): tde; inhibition (Hep 3B2 [6]): Dose-dependent effect; inhibition (PLC-PRF-5 [7]): Dose-dependent effect; inhibition (Huh-7 [8]): Dose-dependent effect; inhibition (HepG2 [9]): Dose-dependent effect; inhibition at 100 µM (HepG2 [10]): 80%; inhibition at 100 µM (MCF7): 77.4%
